Test results reported in ChEMBL document CHEMBL4190316, “Synthesis and biological evaluation of 4-biphenylamino-5-halo-2(5H)-furanones as potential anticancer agents” (Eur J Med Chem, 2017).
Calls of active or inactive are those of the source. The calls are words filed in the database; no cut-off is given here.

Legend:
MCF7 [1] = experiment: Induction of apoptosis in human MCF7 cells assessed as early apoptotic cells at 20 uM after 24 hrs by Annexin-V/PI staining based flow cytometry (reference value: 0.13%); format: functional
MCF7 [2] = experiment: Induction of apoptosis in human MCF7 cells assessed as late apoptotic cells at 40 uM after 72 hrs by Annexin-V/PI staining based flow cytometry (reference value: 0.60%); format: functional
MCF7 [3] = experiment: Induction of apoptosis in human MCF7 cells assessed as necrotic cells at 10 uM after 72 hrs by Annexin-V/PI staining based flow cytometry (reference value: 1.36%); format: functional
MCF7 [4] = experiment: Cell cycle arrest in human MCF7 cells assessed as accumulation at sub-G1 phase at 10 to 40 uM after 24 to 72 hrs by propidium iodide staining based flow cytometry; format: functional
MCF7 [5] = experiment: Cell cycle arrest in human MCF7 cells assessed as accumulation at G2/M phase after 72 hrs by propidium iodide staining based flow cytometry; format: functional
MCF7 [6] = experiment: Induction of apoptosis in human MCF7 cells assessed as late apoptotic cells at 10 uM after 72 hrs by Annexin-V/PI staining based flow cytometry (reference value: 0.60%); format: functional
MCF7 [7] = experiment: Induction of apoptosis in human MCF7 cells assessed as late apoptotic cells at 10 uM after 24 hrs by Annexin-V/PI staining based flow cytometry (reference value: 0.96%); format: functional
MCF7 [8] = experiment: Induction of apoptosis in human MCF7 cells assessed as late apoptotic cells at 20 uM after 24 hrs by Annexin-V/PI staining based flow cytometry (reference value: 0.96%); format: functional
MCF7 [9] = experiment: Cell cycle arrest in human MCF7 cells assessed as accumulation at G2/M phase at 40 uM after 72 hrs by propidium iodide staining based flow cytometry (reference value: 17.99%); format: functional
MCF7 [10] = experiment: Induction of apoptosis in human MCF7 cells assessed as necrotic cells at 20 uM after 24 hrs by Annexin-V/PI staining based flow cytometry (reference value: 4.03%); format: functional
Quadruplex DNA [11] = experiment: Binding affinity to c-Myc G-quadruplex DNA (unknown origin) at 20 uM incubated for 2 mins by fluorescence emission spectra method; format: nucleic-acid assay
MCF7 [12] = experiment: Cell cycle arrest in human MCF7 cells assessed as accumulation at G1 phase at 20 uM after 72 hrs by propidium iodide staining based flow cytometry (reference value: 66.42%); format: functional
MCF7 [13] = experiment: Cell cycle arrest in human MCF7 cells assessed as accumulation at G2/M phase at 10 uM after 72 hrs by propidium iodide staining based flow cytometry (reference value: 17.99%); format: functional
[14] = Cytotoxicity against human NCI-EC1 cells assessed as reduction in cell viability after 72 hrs by MTT assay; format: functional, cell-based
MCF7 [15] = experiment: Induction of apoptosis in human MCF7 cells assessed as necrotic cells at 40 uM after 72 hrs by Annexin-V/PI staining based flow cytometry (reference value: 1.36%); format: functional
MCF7 [16] = experiment: Cell cycle arrest in human MCF7 cells assessed as accumulation at S phase at 20 uM after 72 hrs by propidium iodide staining based flow cytometry (reference value: 15.59%); format: functional
MCF7 [17] = experiment: Cell cycle arrest in human MCF7 cells assessed as accumulation at G2/M phase at 40 uM after 24 hrs by propidium iodide staining based flow cytometry (reference value: 6.91%); format: functional
MCF7 [18] = experiment: Induction of apoptosis in human MCF7 cells assessed as live cells at 20 uM after 72 hrs by Annexin-V/PI staining based flow cytometry (reference value: 97.7%); format: functional
C6 = experiment: Cytotoxicity against rat C6 cells assessed as reduction in cell viability after 72 hrs by MTT assay; format: functional, cell-based; conditions: C6, 72 h
MCF7 [19] = experiment: Induction of apoptosis in human MCF7 cells assessed as early apoptotic cells at 10 uM after 72 hrs by Annexin-V/PI staining based flow cytometry (reference value: 0.28%); format: functional
HepG2 = experiment: Cytotoxicity against human HepG2 cells assessed as reduction in cell viability after 72 hrs by MTT assay; format: functional, cell-based; conditions: HepG2, 72 h
MCF7 [20] = experiment: Cell cycle arrest in human MCF7 cells assessed as accumulation at G1 phase at 10 uM after 24 hrs by propidium iodide staining based flow cytometry (reference value: 69.92%); format: functional
MCF7 [21] = experiment: Induction of apoptosis in human MCF7 cells assessed as live cells at 40 uM after 24 hrs by Annexin-V/PI staining based flow cytometry (reference value: 94.88%); format: functional
MCF7 [22] = experiment: Cell cycle arrest in human MCF7 cells assessed as accumulation at G1 phase at 40 uM after 24 hrs by propidium iodide staining based flow cytometry (reference value: 69.92%); format: functional
MCF7 [23] = experiment: Induction of apoptosis in human MCF7 cells assessed as necrotic cells at 40 uM after 24 hrs by Annexin-V/PI staining based flow cytometry (reference value: 4.03%); format: functional
MCF7 [24] = experiment: Induction of apoptosis in human MCF7 cells assessed as necrotic cells at 20 uM after 72 hrs by Annexin-V/PI staining based flow cytometry (reference value: 1.36%); format: functional
MCF7 [25] = experiment: Cell cycle arrest in human MCF7 cells assessed as accumulation at S phase at 20 uM after 24 hrs by propidium iodide staining based flow cytometry (reference value: 23.16%); format: functional
MCF7 [26] = experiment: Cytotoxicity against human MCF7 cells assessed as reduction in cell viability after 72 hrs by MTT assay; format: functional, cell-based; conditions: MCF7, 72 h
MCF7 [27] = experiment: Cell cycle arrest in human MCF7 cells assessed as accumulation at S phase at 40 uM after 72 hrs by propidium iodide staining based flow cytometry (reference value: 15.59%); format: functional
MCF7 [28] = experiment: Cell cycle arrest in human MCF7 cells assessed as accumulation at S phase at 10 uM after 72 hrs by propidium iodide staining based flow cytometry (reference value: 15.59%); format: functional
MCF7 [29] = experiment: Induction of apoptosis in human MCF7 cells assessed as live cells at 40 uM after 72 hrs by Annexin-V/PI staining based flow cytometry (reference value: 97.7%); format: functional
MCF7 [30] = experiment: Cell cycle arrest in human MCF7 cells assessed as accumulation at G1 phase at 10 uM after 72 hrs by propidium iodide staining based flow cytometry (reference value: 66.42%); format: functional
MCF7 [31] = experiment: Induction of apoptosis in human MCF7 cells assessed as live cells at 20 uM after 24 hrs by Annexin-V/PI staining based flow cytometry (reference value: 94.88%); format: functional
Quadruplex DNA [32] = experiment: Stabilization of c-Myc G-quadruplex DNA in human MCF7 cells assessed as downregulation of c-Myc protein expression after 72 hrs by Western blot method; format: cell-based
MCF7 [33] = experiment: Cell cycle arrest in human MCF7 cells assessed as accumulation at G2/M phase at 20 uM after 24 hrs by propidium iodide staining based flow cytometry (reference value: 6.91%); format: functional
MCF7 [34] = experiment: Induction of apoptosis in human MCF7 cells assessed as early apoptotic cells at 40 uM after 24 hrs by Annexin-V/PI staining based flow cytometry (reference value: 0.13%); format: functional
HaCaT = experiment: Cytotoxicity against human HaCaT cells assessed as reduction in cell viability after 72 hrs by MTT assay; format: cell-based
Quadruplex DNA [35] = experiment: Binding affinity to c-Myc G-quadruplex DNA (unknown origin) at 20 uM incubated for 3 mins by electronic absorption spectra method; format: nucleic-acid assay

CC(=O)OC1OC(=O)C(Br)=C1Nc1ccc(-c2ccc(N)cc2)cc1 (stereo not drawn)
Activity (MCF7 [1]): 0.13%
Activity (MCF7 [2]): 1.19%
Activity (MCF7 [3]): 3.2%
Activity (MCF7 [4]): inactive
Activity (MCF7 [5]): Dose-dependent effect
Activity (MCF7 [6]): 0.67%
Activity (MCF7 [7]): 0.13%
Activity (MCF7 [8]): 0.07%
Activity (MCF7 [9]): 35.13%
Activity (MCF7 [10]): 4.59%
Activity (Quadruplex DNA [11]): Active
Activity (MCF7 [12]): 61.38%
Activity (MCF7 [13]): 20.53%
IC50 [14]: 55.1 µM
Activity (MCF7 [15]): 4.94%
Activity (MCF7 [16]): 15.18%
Activity (MCF7 [17]): 17.92%
Activity (MCF7 [18]): 96.19%
IC50 (C6): 15.4 µM
Activity (MCF7 [19]): 0.32%
IC50 (HepG2): 35.3 µM
Activity (MCF7 [20]): 66.44%
Activity (MCF7 [21]): 95.28%
Activity (MCF7 [22]): 55.63%
Activity (MCF7 [23]): 0.14%
Activity (MCF7 [24]): 2.59%
Activity (MCF7 [25]): 21.11%
IC50 (MCF7 [26]): 11.8 µM
Activity (MCF7 [27]): 20.5%
Activity (MCF7 [28]): 15.56%
Activity (MCF7 [29]): 93.39%
Activity (MCF7 [30]): 63.91%
Activity (MCF7 [31]): 95.21%
Activity (Quadruplex DNA [32]): Dose-dependent effect
Activity (MCF7 [33]): 10.59%
Activity (MCF7 [34]): 4.08%
IC50 (HaCaT): > 100 µM
K (Quadruplex DNA [35]): 1.6 ×10⁷ /M
